Measurements as given in the supplement of paper PMC10307832.

How the values were obtained:
Assay in all cases: relative viability (nuclei count vs DMSO), 5 days (fraction); higher = more cells survive
Bosutinib + Palbociclib = compound: COc1cc(Nc2c(C#N)cnc3cc(OCCCN4CCN(C)CC4)c(OC)cc23)c(Cl)cc1Cl [Bosutinib] + CC(=O)c1c(C)c2cnc(Nc3ccc(N4CCNCC4)cn3)nc2n(C2CCCC2)c1=O [Palbociclib] (partner 0.5 µM)
How it was run: (§1)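 Lung cancer cell lines in 1536-well plates were dosed by pin tool the day after seeding, either with one drug alone or with a fixed anchor-drug dose plus five library-drug doses (not always all listed) in √10 steps. After 5 days, cells were fixed and their nuclei stained in one step (final 0.05% Triton X-100, 1% formaldehyde, 1 ug/ml Hoechst), then counted on 4× images. Relative viability is the nuclei count in treated wells divided by that in vehicle wells. Values are medians of duplicate plates.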

Bosutinib + Bortezomib = compound: COc1cc(Nc2c(C#N)cnc3cc(OCCCN4CCN(C)CC4)c(OC)cc23)c(Cl)cc1Cl [Bosutinib] + CC(C)C[C@H](NC(=O)[C@H](Cc1ccccc1)NC(=O)c1cnccn1)B(O)O [Bortezomib] (partner 0.002 µM)
How it was run: as §1

Bosutinib + Foretinib = compound: COc1cc(Nc2c(C#N)cnc3cc(OCCCN4CCN(C)CC4)c(OC)cc23)c(Cl)cc1Cl [Bosutinib] + COc1cc2c(Oc3ccc(NC(=O)C4(C(=O)Nc5ccc(F)cc5)CC4)cc3F)ccnc2cc1OCCCN1CCOCC1 [Foretinib] (partner 0.25 µM)
How it was run: as §1

Bosutinib + Pemetrexed = compound: COc1cc(Nc2c(C#N)cnc3cc(OCCCN4CCN(C)CC4)c(OC)cc23)c(Cl)cc1Cl [Bosutinib] + Nc1nc2[nH]cc(CCc3ccc(C(=O)N[C@@H](CCC(=O)O)C(=O)O)cc3)c2c(=O)[nH]1 [Pemetrexed] (partner 0.2 µM)
How it was run: as §1

Bosutinib + Decitabine = compound: COc1cc(Nc2c(C#N)cnc3cc(OCCCN4CCN(C)CC4)c(OC)cc23)c(Cl)cc1Cl [Bosutinib] + Nc1ncn([C@H]2C[C@H](O)[C@@H](CO)O2)c(=O)n1 [Decitabine] (partner 2 µM)
How it was run: as §1

| Cell Line | relative viability (Bosutinib + Palbociclib; first compound 0.01 µM) | relative viability (Bosutinib + Palbociclib; first compound 0.03162 µM) | relative viability (Bosutinib + Palbociclib; first compound 0.1 µM) | relative viability (Bosutinib + Palbociclib; first compound 1 µM) | relative viability (Bosutinib + Bortezomib; first compound 0.01 µM) | relative viability (Bosutinib + Bortezomib; first compound 0.03162 µM) | relative viability (Bosutinib + Bortezomib; first compound 0.1 µM) | relative viability (Bosutinib + Bortezomib; first compound 1 µM) | relative viability (Bosutinib + Foretinib; first compound 0.01 µM) | relative viability (Bosutinib + Foretinib; first compound 0.03162 µM) | relative viability (Bosutinib + Foretinib; first compound 0.1 µM) | relative viability (Bosutinib + Foretinib; first compound 1 µM) | relative viability (Bosutinib + Pemetrexed; first compound 0.01 µM) | relative viability (Bosutinib + Pemetrexed; first compound 0.03162 µM) | relative viability (Bosutinib + Pemetrexed; first compound 0.1 µM) | relative viability (Bosutinib + Pemetrexed; first compound 1 µM) | relative viability (Bosutinib + Decitabine; first compound 0.01 µM) | relative viability (Bosutinib + Decitabine; first compound 0.03162 µM) | relative viability (Bosutinib + Decitabine; first compound 0.1 µM) | relative viability (Bosutinib + Decitabine; first compound 1 µM) |
| --- | --- | --- | --- | --- | --- | --- | --- | --- | --- | --- | --- | --- | --- | --- | --- | --- | --- | --- | --- | --- |
| HCC-366 | 0.423 | 0.365 | 0.375 | 0.247 | 1.11 | 1.01 | 1.06 | 0.989 | 0.884 | 0.97 | 0.971 | 0.879 | 0.167 | 0.158 | 0.162 | 0.166 | 0.348 | 0.365 | 0.312 | 0.265 |
| HCC-827 | 0.439 | 0.473 | 0.469 | 0.196 | 1.03 | 1 | 1.03 | 0.928 | 0.965 | 1.04 | 1.02 | 0.203 | 0.248 | 0.282 | 0.273 | 0.231 | 0.306 | 0.37 | 0.404 | 0.186 |
| HOP-62 | 0.378 | 0.487 | 0.473 | 0.447 | 0.839 | 0.755 | 0.548 | 0.904 | 1.11 | 0.965 | 1.13 | 1.12 | 0.297 | 0.414 | 0.317 | 0.317 | 0.208 | 0.215 | 0.209 | 0.253 |
| IA-LM | – | – | – | – | 0.797 | 0.827 | 0.881 | 0.8 | 1.1 | 1.18 | 1.14 | 0.982 | – | – | – | – | – | – | – | – |
| LC-2-ad | 0.498 | 0.507 | 0.522 | 0.478 | 1.05 | 0.98 | 1.02 | 1.14 | 0.982 | 0.979 | 0.948 | 0.61 | 0.266 | 0.306 | 0.287 | 0.27 | 0.797 | 0.849 | 0.875 | 0.784 |
| LK-2 | 0.681 | 0.636 | 0.584 | 0.66 | – | – | – | – | 1.1 | 1.49 | 1.19 | 0.914 | 0.235 | 0.281 | 0.321 | 0.266 | 0.278 | 0.363 | 0.313 | 0.359 |
| NCI-H358 | 0.154 | 0.141 | 0.139 | 0.128 | – | – | – | – | 0.896 | 0.705 | 0.648 | 0.494 | 0.152 | 0.163 | 0.18 | 0.163 | 0.211 | 0.213 | 0.209 | 0.218 |
| NCI-H522 | 1.07 | 0.93 | 0.996 | 0.8 | – | – | – | – | – | – | – | – | 0.982 | 0.985 | 0.86 | 0.863 | 0.572 | 0.671 | 0.698 | 0.658 |
| NCI-H596 | – | – | – | – | 1 | 0.967 | 1.11 | 1.02 | 0.745 | 0.857 | 0.721 | 0.855 | 0.576 | 0.464 | 0.503 | 0.505 | 1.03 | 1.07 | 1.05 | 0.876 |
| NCI-H727 | 0.642 | 0.673 | 0.63 | 0.632 | 0.913 | 0.777 | 0.969 | 0.71 | 0.91 | 0.859 | 0.639 | 0.568 | – | – | – | – | 0.848 | 1.03 | 0.909 | 0.764 |
| NCI-H1395 | 0.595 | 0.539 | 0.643 | 0.48 | – | – | – | – | 0.947 | 0.921 | 0.996 | 0.947 | 0.964 | 0.966 | 0.958 | 0.926 | 0.687 | 0.756 | 0.688 | 0.735 |
| NCI-H1563 | – | – | – | – | 0.885 | 0.775 | 0.784 | 0.659 | 0.917 | 0.953 | 0.846 | 0.676 | 0.655 | 0.771 | 0.772 | 0.638 | – | – | – | – |
| NCI-H1703 | – | – | – | – | 0.34 | 0.332 | 0.402 | 0.236 | 0.371 | 0.345 | 0.334 | 0.246 | – | – | – | – | – | – | – | – |
| NCI-H1792 | 0.686 | 0.588 | 0.724 | 0.728 | 0.991 | 0.95 | 0.974 | 0.884 | – | – | – | – | 0.902 | 0.792 | 0.891 | 0.764 | 0.611 | 0.561 | 0.623 | 0.417 |
| NCI-H1793 | 0.272 | 0.311 | 0.326 | 0.266 | – | – | – | – | 0.61 | 0.664 | 0.58 | 0.473 | 0.86 | 0.792 | 0.829 | 0.639 | 0.505 | 0.505 | 0.436 | 0.436 |
| NCI-H1944 | 0.363 | 0.362 | 0.373 | 0.298 | – | – | – | – | 0.997 | 0.814 | 0.889 | 0.574 | 0.706 | 0.624 | 0.555 | 0.601 | 0.477 | 0.49 | 0.472 | 0.393 |
| NCI-H2170 | 0.351 | 0.373 | 0.383 | 0.4 | – | – | – | – | 0.959 | 1 | 1.01 | 0.962 | 0.261 | 0.262 | 0.251 | 0.26 | 0.429 | 0.465 | 0.463 | 0.457 |
| NCI-H2228 | 0.955 | 0.943 | 0.955 | 0.859 | 1.03 | – | 1.16 | 1.12 | 0.762 | 0.931 | 0.887 | 0.744 | 0.354 | 0.308 | 0.361 | 0.319 | – | – | – | – |
| SK-MES-1 | 0.329 | 0.327 | 0.326 | 0.295 | – | – | – | – | 0.966 | 0.955 | 0.97 | 0.747 | 0.94 | 1.03 | 0.938 | 0.556 | 0.412 | 0.482 | 0.428 | 0.314 |
| SW 900 | 0.524 | 0.525 | 0.5 | 0.352 | – | – | – | – | 0.806 | – | 1.04 | 0.721 | 0.465 | 0.501 | 0.462 | 0.39 | 0.408 | 0.438 | 0.427 | 0.424 |
